Measured values published in publication PMC5451006, “Inhibition of insect olfactory behavior by an airborne antagonist of the insect odorant receptor co-receptor subunit” (PLoS ONE, 2017).

Legend:
Format in all cases: cell-based
Cqui\Orco+Cqui\Or21 = target: T1, Cqui\Orco+Cqui\Or21 (Culex quinquefasciatus, UniProt Z9TAD8G4U6); test: two-electrode voltage clamp, Xenopus oocytes, concentration-inhibition; conditions: antagonist vs 3 μM OLC12 (Orco agonist), -70 mV, pH 7.4, 90 sec pre-application
T1 construct: heteromeric OR, cRNAs from pGEMHE co-expressed in Xenopus laevis oocytes; stoichiometry unknown; with Odorant receptor 21
T1 sequence (Z9TAD8G4U6 1-480): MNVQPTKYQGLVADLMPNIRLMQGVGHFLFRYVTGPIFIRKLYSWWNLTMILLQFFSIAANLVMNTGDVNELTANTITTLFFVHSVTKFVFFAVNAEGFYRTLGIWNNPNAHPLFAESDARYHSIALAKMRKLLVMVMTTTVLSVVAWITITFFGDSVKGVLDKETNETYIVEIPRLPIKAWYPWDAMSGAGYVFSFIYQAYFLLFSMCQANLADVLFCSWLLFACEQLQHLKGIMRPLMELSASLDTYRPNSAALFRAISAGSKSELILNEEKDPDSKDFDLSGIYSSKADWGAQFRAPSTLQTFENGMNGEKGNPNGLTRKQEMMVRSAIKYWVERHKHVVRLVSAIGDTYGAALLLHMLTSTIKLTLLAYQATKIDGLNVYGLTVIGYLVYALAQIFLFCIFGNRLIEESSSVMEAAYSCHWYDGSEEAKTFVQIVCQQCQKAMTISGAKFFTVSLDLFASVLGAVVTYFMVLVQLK

Dmel\Orco+Dmel\Or35a = target: T2, Dmel\Orco+Dmel\Or35a (Drosophila melanogaster, UniProt Q9VNB5); test: as above
T2 construct: heteromeric OR, cRNAs co-expressed in Xenopus laevis oocytes; stoichiometry unknown; with Odorant receptor 35a
T2 sequence (Q9VNB5 1-486): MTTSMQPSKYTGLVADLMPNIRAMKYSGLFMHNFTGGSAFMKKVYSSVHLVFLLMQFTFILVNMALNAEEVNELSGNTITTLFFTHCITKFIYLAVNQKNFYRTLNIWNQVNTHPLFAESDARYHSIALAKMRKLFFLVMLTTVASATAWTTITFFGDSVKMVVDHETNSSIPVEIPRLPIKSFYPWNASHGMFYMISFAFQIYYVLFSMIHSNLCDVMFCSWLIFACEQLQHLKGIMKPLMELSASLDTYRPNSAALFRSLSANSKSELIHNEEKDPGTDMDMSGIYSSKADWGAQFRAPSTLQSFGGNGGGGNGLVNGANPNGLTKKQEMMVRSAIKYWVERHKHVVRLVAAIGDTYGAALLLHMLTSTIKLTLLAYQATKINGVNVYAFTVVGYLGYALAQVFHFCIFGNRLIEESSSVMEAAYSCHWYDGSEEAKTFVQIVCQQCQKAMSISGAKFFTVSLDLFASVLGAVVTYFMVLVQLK
T2 sequence (Q9V3Q2 1-409 partner): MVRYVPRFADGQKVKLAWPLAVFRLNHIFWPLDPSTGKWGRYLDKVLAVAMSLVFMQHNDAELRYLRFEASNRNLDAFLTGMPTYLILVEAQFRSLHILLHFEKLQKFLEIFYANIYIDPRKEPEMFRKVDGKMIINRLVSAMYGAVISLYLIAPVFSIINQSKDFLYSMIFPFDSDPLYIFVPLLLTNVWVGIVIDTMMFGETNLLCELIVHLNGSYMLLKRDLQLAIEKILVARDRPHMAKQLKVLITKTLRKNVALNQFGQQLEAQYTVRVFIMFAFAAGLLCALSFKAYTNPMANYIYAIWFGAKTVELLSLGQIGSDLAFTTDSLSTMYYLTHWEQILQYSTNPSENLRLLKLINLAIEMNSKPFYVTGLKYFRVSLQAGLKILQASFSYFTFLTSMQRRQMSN

Agam\Orco+Agam\Or31 = target: T3, Agam\Orco+Agam\Or31 (Anopheles gambiae, UniProt Q7QCC7); test: two-electrode voltage clamp, Xenopus oocytes, single concentration; conditions: antagonist vs 70 μM geranyl acetate (EC50 concentration); allosteric via Orco; pH 7.4, -70 mV
T3 construct: heteromeric OR co-expressed in Xenopus laevis oocytes; stoichiometry unknown; with Odorant receptor 31
T3 sequence (Q7QCC7 1-478): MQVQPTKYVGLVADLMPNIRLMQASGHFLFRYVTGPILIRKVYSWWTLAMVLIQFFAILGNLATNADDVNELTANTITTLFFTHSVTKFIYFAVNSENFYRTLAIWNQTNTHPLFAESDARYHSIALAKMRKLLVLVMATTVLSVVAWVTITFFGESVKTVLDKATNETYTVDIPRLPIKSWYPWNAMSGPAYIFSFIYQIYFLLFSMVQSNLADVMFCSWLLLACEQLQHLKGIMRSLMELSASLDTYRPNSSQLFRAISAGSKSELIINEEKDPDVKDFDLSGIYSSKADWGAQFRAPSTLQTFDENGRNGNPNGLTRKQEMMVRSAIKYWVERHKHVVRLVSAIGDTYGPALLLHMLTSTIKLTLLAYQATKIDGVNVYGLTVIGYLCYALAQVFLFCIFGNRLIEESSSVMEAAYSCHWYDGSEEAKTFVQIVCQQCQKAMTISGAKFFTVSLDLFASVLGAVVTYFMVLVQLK

Agam\Orco+Agam\Or39 = target: T4, Agam\Orco+Agam\Or39 (Anopheles gambiae, UniProt Q7QCC7); test: as above; conditions: antagonist vs 10 μM 6-methyl-5-hepten-2-one (EC50 concentration); allosteric via Orco; pH 7.4, -70 mV
T4 construct: heteromeric OR co-expressed in Xenopus laevis oocytes; stoichiometry unknown; with Odorant receptor 39
T4 sequence (Q7QCC7 1-478): T3 sequence (Q7QCC7 1-478)

Dmel\Orco = target: T5, Dmel\Orco (Drosophila melanogaster, UniProt Q9VNB5); test: as above; conditions: antagonist vs 30 μM OLC12; homomeric Orco; pH 7.4, -70 mV
T5 construct: homomeric Orco channel, expressed alone in Xenopus laevis oocytes
T5 sequence (Q9VNB5 1-486): T2 sequence (Q9VNB5 1-486)
Excerpt: two-electrode voltage clamp, Xenopus oocytes, single concentration on Dmel\Orco | OX1w inhibition of homomeric Orco channels. Oocytes expressing Dmel\Orco, Cqui\Orco or Agam\Orco

Agam\Orco+Agam\Or27 = target: T6, Agam\Orco+Agam\Or27 (Anopheles gambiae, UniProt Q7QCC7); test: as above; conditions: antagonist vs 3 μM L-fenchone (EC50 concentration); allosteric via Orco; pH 7.4, -70 mV
T6 construct: heteromeric OR co-expressed in Xenopus laevis oocytes; stoichiometry unknown; with Odorant receptor 27
T6 sequence (Q7QCC7 1-478): T3 sequence (Q7QCC7 1-478)

Agam\Orco+Agam\Or15 = target: T7, Agam\Orco+Agam\Or15 (Anopheles gambiae, UniProt Q7QCC7); test: as above; conditions: antagonist vs 18 μM acetophenone (EC50 concentration); allosteric via Orco; pH 7.4, -70 mV
T7 construct: heteromeric OR co-expressed in Xenopus laevis oocytes; stoichiometry unknown; with Odorant receptor 15
T7 sequence (Q7QCC7 1-478): T3 sequence (Q7QCC7 1-478)

Agam\Orco+Agam\Or28 = target: T8, Agam\Orco+Agam\Or28 (Anopheles gambiae, UniProt Q7QCC7); test: as above; conditions: antagonist vs 40 μM acetophenone (EC50 concentration); allosteric via Orco; pH 7.4, -70 mV
T8 construct: heteromeric OR co-expressed in Xenopus laevis oocytes; stoichiometry unknown; with Odorant receptor 28
T8 sequence (Q7QCC7 1-478): T3 sequence (Q7QCC7 1-478)

Cqui\Orco = target: T9, Cqui\Orco (Culex quinquefasciatus, UniProt Z9TAD8G4U6); test: as above; conditions: antagonist vs 30 μM OLC12; homomeric Orco; pH 7.4, -70 mV
T9 construct: homomeric Orco channel, expressed alone in Xenopus laevis oocytes
T9 sequence (Z9TAD8G4U6 1-480): T1 sequence (Z9TAD8G4U6 1-480)
Excerpt: two-electrode voltage clamp, Xenopus oocytes, single concentration on Cqui\Orco | OX1w inhibition of homomeric Orco channels. Oocytes expressing Dmel\Orco, Cqui\Orco or Agam\Orco

Agam\Orco+Agam\Or65 = target: T10, Agam\Orco+Agam\Or65 (Anopheles gambiae, UniProt Q7QCC7); test: as above; conditions: antagonist vs 100 nM eugenol (EC50 concentration); allosteric via Orco; pH 7.4, -70 mV
T10 construct: heteromeric OR co-expressed in Xenopus laevis oocytes; stoichiometry unknown; with Odorant receptor 65
T10 sequence (Q7QCC7 1-478): T3 sequence (Q7QCC7 1-478)

Agam\Orco = target: T11, Agam\Orco (Anopheles gambiae, UniProt Q7QCC7); test: as above; conditions: antagonist vs 30 μM OLC12; homomeric Orco; pH 7.4, -70 mV
T11 construct: homomeric Orco channel, expressed alone in Xenopus laevis oocytes
T11 sequence (Q7QCC7 1-478): T3 sequence (Q7QCC7 1-478)
Excerpt: two-electrode voltage clamp, Xenopus oocytes, single concentration on Agam\Orco | OX1w inhibition of homomeric Orco channels. Oocytes expressing Dmel\Orco, Cqui\Orco or Agam\Orco

Structure (SMILES) | IC50 (Cqui\Orco+Cqui\Or21) [µM] | IC50 (Dmel\Orco+Dmel\Or35a) [µM] | % response remaining at 100 μM (normalized to sham) (Agam\Orco+Agam\Or31) | % response remaining at 100 μM (normalized to sham) (Agam\Orco+Agam\Or39) | % response remaining at 100 μM (Dmel\Orco) | % response remaining at 100 μM (normalized to sham) (Agam\Orco+Agam\Or27) | % response remaining at 100 μM (normalized to sham) (Agam\Orco+Agam\Or15) | % response remaining at 100 μM (normalized to sham) (Agam\Orco+Agam\Or28) [%] | % response remaining at 100 μM (Cqui\Orco) | % response remaining at 100 μM (normalized to sham) (Agam\Orco+Agam\Or65) [%] | % response remaining at 100 μM (Agam\Orco)
O=C(Nc1cc(F)cc(F)c1)c1cccs1 [OX1v, N-(3,5-difluorophenyl)-2-thiophenecarboxamide] | 20 ± 3 | 32 ± 4 | – | – | – | – | – | – | – | – | –
O=C(Nc1ccc(F)cc1)c1sccc1Cl [OX1w, 3-chloro-N-(4-fluorophenyl)-2-thiophenecarboxamide] | 4 ± 1 | 57 ± 5 | OX1w was able to inhibit odorant activation of each of the tested ORs | OX1w was able to inhibit odorant activation of each of the tested ORs | OX1w inhibition of homomeric Orco channels. Oocytes expressing Dmel\Orco, Cqui\Orco or Agam\Orco | OX1w was able to inhibit odorant activation of each of the tested ORs | OX1w was able to inhibit odorant activation of each of the tested ORs | 8 ± 1 | OX1w inhibition of homomeric Orco channels. Oocytes expressing Dmel\Orco, Cqui\Orco or Agam\Orco | 78 ± 5 | OX1w inhibition of homomeric Orco channels. Oocytes expressing Dmel\Orco, Cqui\Orco or Agam\Orco
O=C(Nc1ccc(SC(F)F)cc1)c1cccs1 [OX1x, N-(4-((difluoromethyl)thio)phenyl)-2-thiophenecarboxamide] | 15 ± 1 | 32 ± 6 | – | – | – | – | – | – | – | – | –
